# Laboratory results from ChEMBL document CHEMBL5727862, “Inhibitors of plasma kallikrein and uses thereof” (2020).
# Assay: Inhibitory Activity of Exemplary Compounds against Plasma Kallikrein: Example compounds were evaluated for inhibition of the human activated kallikrein enzyme in two formats of an assay employing a fluorogenic peptide substrate. In one assay format, the concentrations of reagents were as follows: 20 mM Tris pH 7.5, 1 mM EDTA, 150 mM sodium chloride, 0.1% PEG-400, 0.1% Triton X-100, 500 pM activated kallikrein enzyme, 300 uM Pro-Phe-Arg-7-amido-4-methylcoumarin substrate. Prior to reaction initiation with substrate, enzyme and inhibitors were preincubated for 30 min at RT. After initiation with substrate, reactions were incubated for 10 min at RT and fluorescence emission at 460 nm from 380 nm excitation measured with a microplate reader. In another assay format, the concentrations of reagents were as follows: 20 mM Tris pH 7.5, 1 mM EDTA, 150 mM sodium chloride, 0.1% PEG-400, 0.1% Triton X-100, 5 pM activated kallikrein enzyme, 300 uM Pro-Phe-Arg-7-amido-4-methylcoumarin substrate. Prior to reaction initiation with substrate, enzyme and inhibitors were preincubated for 30 min at RT. After initiation with substrate, reactions were incubated for 18 h at RT and fluorescence emission at 460 nm from 380 nm excitation measured with a microplate reader.
row,SMILES,EC50 [nM]
1,CC(c1cn2cc(C3CC3)cc(C3CCC(=O)O3)c2n1)n1cc(C(=O)NCc2ncn3ccc(Cl)c(F)c23)nn1 (configuration not stated),< 1
2,CCOC(=O)C1CN(c2cc(C3CC3)cn3cc(Cn4cc(C(=O)NCc5ncn6ccc(Cl)c(F)c56)nn4)nc23)CCO1 (configuration not stated),< 1
3,CCOC(=O)c1cc(C2CC2)cn2cc(Cn3cc(C(=O)NCc4ncn5ccc(Cl)cc45)cn3)nc12,< 1
4,CCOC(=O)c1ccn(Cc2cc(C3CC3)cn3cc(Cn4cc(C(=O)NCc5ncn6ccc(Cl)c(F)c56)nn4)nc23)n1,< 1
5,O=C(NCc1cn2c(F)c(Cl)ccc2n1)c1cn(Cc2cn3cc(C4CC4)cc(Cc4nnco4)c3n2)nn1,< 1

# Second part, the molecule after the results:
row,EC50 [nM],SMILES
1,< 1,O=C(NCc1ncn2ccc(Cl)c(F)c12)c1cn(Cc2cn3nc(C4CC4)cc(CN4CCCC4)c3n2)nn1
2,< 1,O=C(OCc1ccccc1)c1cnn(Cc2cn3cc(C4CC4)cc(CO)c3n2)c1
3,< 1,O=C(NCc1ncn2ccc(Cl)c(F)c12)c1cn(Cc2cn3cc(C4CC4)ccc3n2)c(C(=O)O)n1
4,< 1,O=C(NCc1cn2c(F)c(Cl)ccc2n1)c1cn(Cc2cn3cc(C4CC4)cc(Cc4nnc(C(=O)O)o4)c3n2)nn1
5,< 1,CCOC(=O)c1cc(C2CC2)cn2cc(Cn3cc(C(=O)NCc4ncn5ccc(Cl)c(F)c45)nn3)nc12
6,< 1,CC(C)(C)OC(=O)c1ncc(-c2cc(C3CC3)cn3cc(Cn4cc(C(=O)NCc5ncn6ccc(Cl)c(F)c56)nn4)nc23)s1
7,< 1,O=C(NCc1ncn2ccc(Cl)c(F)c12)c1cn(Cc2cn3cc(C4CC4)cc(CCl)c3n2)nn1
